Measurements reported in patent US20040087543A1, “Methods and products for mucosal delivery” (priority 2002, published 2004).
Like-named read-outs stand apart in the source and are kept apart here.

Details: rabbit, in vivo, sc
Method: For the rabbit model, 2.5-3 kg New Zealand male rabbits were used with 3 rabbits per group. Rabbits were allowed to adapt for 7 days and free access to water and food. Ketamine (40 mg/kg) and Xylazine (5 mg/kg) were used to anesthetize the rabbits. To withdraw blood samples, a 24-gauze Teflon catheter was inserted into the center auricular artery. The catheter was connected to a heparin cap filled with 0.9% saline solution.
Enoxaparin at doses of 3 and 6 mg/kg was given by subcutaneous injection at time 0. Blood samples were collected 0, 3, 5, 10, 15, 30 min, 1, 2, 3, 4, 6, 8, 12 hours after subcutaneous injection and processed as described above. The plasma was collected at indicated times and analyzed for anti-Xa assay as described. Enoxaparin for subcutaneous injection was formulated as a solution in PBS or water at 100 mg/ml concentration and appropriate doses were injected.
An anti-Xa assay was used to monitor plasma LMWH levels. The anti-Xa assay was performed using a modification of the amidolytic method of Teien and Lie (Thrombosis res. 10: 399-410, 1977) with the Coatest heparin test kit by using S-2222 as the chromogenic substrate (Diapharma Group, Inc. OH). […] The concentration of enoxaparin in unknown samples was calculated by comparing readings to the calibration curve which was linear in the range of 0.1-0.7 IU/ml.
Experimental data, expressed in anti-Xa IU/mL, was utilized for non-linear regression curves based on a one-compartment model (Comelli and Fareed, Semin thromb Hemost, 25: 57-61, 1999) by using SigmaPlot program with the method of extended least squares. From the kinetic curves, the following parameters were calculated: the area under curve (AUC expressed in IU*hr*ml^−1), absorption half-life (t1/2 expressed in hr); and half-life of apparent elimination (t1/2e expressed in hr). The AUC (0-t) was calculated using the trapezoidal rule (Rowland and Tozer, Clinical Pharmacokinetics. Concepts and Applications. 459-461, Lea and Febiger, 1989) and extrapolated to infinity (AUC) by dividing the value of the last measured concentration by the elimination rate constant.

| Substance | absorption half-life | AUC (IU*hr/mL) (3 mg/kg) | Ka (3 mg/kg) | Ke (3 mg/kg) | MRT (AUMC/AUC) (3 mg/kg) | AUC (IU*hr/mL) (6 mg/kg) | Ka (6 mg/kg) | Ke (6 mg/kg) | MRT (AUMC/AUC) (6 mg/kg) |
| --- | --- | --- | --- | --- | --- | --- | --- | --- | --- |
| enoxaparin | 1 to 2 h | 6.27 IU * hr/mL | 0.40 | 0.35 h⁻¹ | 4.75 h | 13.45 IU * hr/mL | 0.35 | 0.3 h⁻¹ | 5.48 h |
| dalteparin | 1 to 2 h | 6.93 IU*hr/mL | 0.40 | 0.33 h⁻¹ | 4.97 h | 13.27 IU*hr/mL | 0.32 | 0.27 h⁻¹ | 5.93 h |
